# Test results from ChEMBL document CHEMBL1127195, “Screening chemically synthesized peptide libraries for biologically-relevant molecules” (Bioorg Med Chem Lett, 1993).
# Test system: Monoclonal antibody (mAb)
# Experiment: Binding affinity towards monoclonal antibody (MAb) using ELISA assay, activity expressed relative to WQMGHS=1
row,Compound,Relative activity
1,CSCC[C@@H](NC(=O)[C@H](CCC(N)=O)NC(=O)[C@H](N)Cc1c[nH]c2ccccc12)C(=O)NCC(=O)N[C@H](Cc1c[nH]cn1)C(=O)N[C@@H](CO)C(=O)O,1.16
2,CSCC[C@@H](NC(=O)[C@H](CCC(N)=O)NC(=O)[C@@H](N)Cc1c[nH]c2ccccc12)C(=O)NCC(=O)N[C@H](Cc1c[nH]cn1)C(=O)N[C@H](CO)C(=O)O,0.33
3,CSCC[C@H](NC(=O)[C@@H](CCC(N)=O)NC(=O)[C@@H](N)Cc1c[nH]c2ccccc12)C(=O)NCC(=O)N[C@@H](Cc1c[nH]cn1)C(=O)N[C@@H](CO)C(=O)O,0.82
4,CSCC[C@@H](NC(=O)[C@@H](CCC(N)=O)NC(=O)[C@@H](N)Cc1c[nH]c2ccccc12)C(=O)NCC(=O)N[C@H](Cc1c[nH]cn1)C(=O)N[C@@H](CO)C(=O)O,1.58
5,CSCC[C@H](NC(=O)[C@@H](CCC(N)=O)NC(=O)[C@H](N)Cc1c[nH]c2ccccc12)C(=O)NCC(=O)N[C@@H](Cc1c[nH]cn1)C(=O)N[C@@H](CO)C(=O)O,0.6
6,CSCC[C@H](NC(=O)[C@H](CCC(N)=O)NC(=O)[C@H](N)Cc1c[nH]c2ccccc12)C(=O)NCC(=O)N[C@H](Cc1c[nH]cn1)C(=O)N[C@H](CO)C(=O)O,1
7,CSCC[C@H](NC(=O)[C@H](CCC(N)=O)NC(=O)[C@@H](N)Cc1c[nH]c2ccccc12)C(=O)NCC(=O)N[C@H](Cc1c[nH]cn1)C(=O)N[C@H](CO)C(=O)O,1.06
8,CSCC[C@@H](NC(=O)[C@H](CCC(N)=O)NC(=O)[C@@H](N)Cc1c[nH]c2ccccc12)C(=O)NCC(=O)N[C@@H](Cc1c[nH]cn1)C(=O)N[C@H](CO)C(=O)O,1.17
9,CSCC[C@H](NC(=O)[C@@H](CCC(N)=O)NC(=O)[C@@H](N)Cc1c[nH]c2ccccc12)C(=O)NCC(=O)N[C@H](Cc1c[nH]cn1)C(=O)N[C@@H](CO)C(=O)O,0.64
10,CSCC[C@H](NC(=O)[C@@H](CCC(N)=O)NC(=O)[C@H](N)Cc1c[nH]c2ccccc12)C(=O)NCC(=O)N[C@H](Cc1c[nH]cn1)C(=O)N[C@@H](CO)C(=O)O,1.39
11,CSCC[C@@H](NC(=O)[C@@H](CCC(N)=O)NC(=O)[C@H](N)Cc1c[nH]c2ccccc12)C(=O)NCC(=O)N[C@H](Cc1c[nH]cn1)C(=O)N[C@@H](CO)C(=O)O,0.9
12,CSCC[C@H](NC(=O)[C@H](CCC(N)=O)NC(=O)[C@H](N)Cc1c[nH]c2ccccc12)C(=O)NCC(=O)N[C@@H](Cc1c[nH]cn1)C(=O)N[C@@H](CO)C(=O)O,1.33
13,CSCC[C@H](NC(=O)[C@H](CCC(N)=O)NC(=O)[C@H](N)Cc1c[nH]c2ccccc12)C(=O)NCC(=O)N[C@@H](Cc1c[nH]cn1)C(=O)N[C@H](CO)C(=O)O,0.83
14,CSCC[C@H](NC(=O)[C@@H](CCC(N)=O)NC(=O)[C@@H](N)Cc1c[nH]c2ccccc12)C(=O)NCC(=O)N[C@@H](Cc1c[nH]cn1)C(=O)N[C@H](CO)C(=O)O,0.86
15,CSCC[C@@H](NC(=O)[C@H](CCC(N)=O)NC(=O)[C@@H](N)Cc1c[nH]c2ccccc12)C(=O)NCC(=O)N[C@@H](Cc1c[nH]cn1)C(=O)N[C@@H](CO)C(=O)O,1.01
16,CSCC[C@@H](NC(=O)[C@@H](CCC(N)=O)NC(=O)[C@H](N)Cc1c[nH]c2ccccc12)C(=O)NCC(=O)N[C@@H](Cc1c[nH]cn1)C(=O)N[C@H](CO)C(=O)O,0.43
17,CSCC[C@@H](NC(=O)[C@H](CCC(N)=O)NC(=O)[C@@H](N)Cc1c[nH]c2ccccc12)C(=O)NCC(=O)N[C@H](Cc1c[nH]cn1)C(=O)N[C@@H](CO)C(=O)O,1.31
18,CSCC[C@@H](NC(=O)[C@@H](CCC(N)=O)NC(=O)[C@@H](N)Cc1c[nH]c2ccccc12)C(=O)NCC(=O)N[C@@H](Cc1c[nH]cn1)C(=O)N[C@@H](CO)C(=O)O,0.75

# The next lines start with the values.
row,Relative activity,Compound
1,0.64,CSCC[C@H](NC(=O)[C@H](CCC(N)=O)NC(=O)[C@@H](N)Cc1c[nH]c2ccccc12)C(=O)NCC(=O)N[C@@H](Cc1c[nH]cn1)C(=O)N[C@H](CO)C(=O)O
2,0.81,CSCC[C@@H](NC(=O)[C@@H](CCC(N)=O)NC(=O)[C@@H](N)Cc1c[nH]c2ccccc12)C(=O)NCC(=O)N[C@@H](Cc1c[nH]cn1)C(=O)N[C@H](CO)C(=O)O
3,1,CSCC[C@H](NC(=O)[C@H](CCC(N)=O)NC(=O)[C@@H](N)Cc1c[nH]c2ccccc12)C(=O)NCC(=O)N[C@@H](Cc1c[nH]cn1)C(=O)N[C@@H](CO)C(=O)O
4,0.36,CSCC[C@@H](NC(=O)[C@@H](CCC(N)=O)NC(=O)[C@@H](N)Cc1c[nH]c2ccccc12)C(=O)NCC(=O)N[C@H](Cc1c[nH]cn1)C(=O)N[C@H](CO)C(=O)O
5,0.85,CSCC[C@H](NC(=O)[C@H](CCC(N)=O)NC(=O)[C@@H](N)Cc1c[nH]c2ccccc12)C(=O)NCC(=O)N[C@H](Cc1c[nH]cn1)C(=O)N[C@@H](CO)C(=O)O
6,1.89,CSCC[C@@H](NC(=O)[C@@H](CCC(N)=O)NC(=O)[C@H](N)Cc1c[nH]c2ccccc12)C(=O)NCC(=O)N[C@@H](Cc1c[nH]cn1)C(=O)N[C@@H](CO)C(=O)O
7,0.89,CSCC[C@@H](NC(=O)[C@H](CCC(N)=O)NC(=O)[C@H](N)Cc1c[nH]c2ccccc12)C(=O)NCC(=O)N[C@@H](Cc1c[nH]cn1)C(=O)N[C@H](CO)C(=O)O
8,0.75,CSCC[C@@H](NC(=O)[C@H](CCC(N)=O)NC(=O)[C@H](N)Cc1c[nH]c2ccccc12)C(=O)NCC(=O)N[C@@H](Cc1c[nH]cn1)C(=O)N[C@@H](CO)C(=O)O
9,0.88,CSCC[C@H](NC(=O)[C@@H](CCC(N)=O)NC(=O)[C@H](N)Cc1c[nH]c2ccccc12)C(=O)NCC(=O)N[C@@H](Cc1c[nH]cn1)C(=O)N[C@H](CO)C(=O)O
10,0.44,CSCC[C@@H](NC(=O)[C@@H](CCC(N)=O)NC(=O)[C@H](N)Cc1c[nH]c2ccccc12)C(=O)NCC(=O)N[C@H](Cc1c[nH]cn1)C(=O)N[C@H](CO)C(=O)O
11,0.78,CSCC[C@H](NC(=O)[C@H](CCC(N)=O)NC(=O)[C@H](N)Cc1c[nH]c2ccccc12)C(=O)NCC(=O)N[C@H](Cc1c[nH]cn1)C(=O)N[C@@H](CO)C(=O)O
